# According to PubChem BioAssay (NCI):
#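 96-well plates; 48 h exposure; 5 concentrations. Endpoints by linear interpolation between flanking doses. Not reached: highest tested concentration assigned. TGI marks complete inhibition of growth.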
# What was measured:
# Assay in all cases: DTP human tumour cell line panel, 48 h
# CCRF-CEM leukemia = system: CCRF-CEM leukemia
# HCC-2998 colon = system: HCC-2998 colon
# NCI/ADR-RES ovarian = system: NCI/ADR-RES ovarian
# HOP-62 NSCLC = system: HOP-62 NSCLC
# OVCAR-3 ovarian = system: OVCAR-3 ovarian
# M14 melanoma = system: M14 melanoma
# KM12 colon = system: KM12 colon
# HCT-15 colon = system: HCT-15 colon
# K-562 leukemia = system: K-562 leukemia
# ACHN renal = system: ACHN renal
# HT29 colon = system: HT29 colon
# BT-549 breast = system: BT-549 breast
# HCT-116 colon = system: HCT-116 colon
# MDA-MB-231 breast = system: MDA-MB-231 breast
# COLO 205 colon = system: COLO 205 colon
# SF-295 CNS = system: SF-295 CNS
# OVCAR-8 ovarian = system: OVCAR-8 ovarian
# CAKI-1 renal = system: CAKI-1 renal
# 786-0 renal = system: 786-0 renal
# A549 NSCLC = system: A549 NSCLC
# MDA-N = system: MDA-N
# U251 CNS = system: U251 CNS
# LOX IMVI melanoma = system: LOX IMVI melanoma
# MOLT-4 leukemia = system: MOLT-4 leukemia
# UO-31 renal = system: UO-31 renal
# NCI-H23 lung = system: NCI-H23 lung
# SK-MEL-5 melanoma = system: SK-MEL-5 melanoma
# MALME-3M melanoma = system: MALME-3M melanoma
# UACC-62 melanoma = system: UACC-62 melanoma
# NCI-H522 lung = system: NCI-H522 lung
# SK-OV-3 ovarian = system: SK-OV-3 ovarian
# MDA-MB-435 = system: MDA-MB-435
# SK-MEL-2 melanoma = system: SK-MEL-2 melanoma
# NCI-H460 lung = system: NCI-H460 lung
# SN12C renal = system: SN12C renal
# MCF7 breast = system: MCF7 breast
# EKVX NSCLC = system: EKVX NSCLC
# IGROV1 ovarian = system: IGROV1 ovarian
# OVCAR-4 ovarian = system: OVCAR-4 ovarian
# HL-60(TB) leukemia = system: HL-60(TB) leukemia
# T-47D breast = system: T-47D breast
# PC-3 prostate = system: PC-3 prostate
# OVCAR-5 ovarian = system: OVCAR-5 ovarian
# UACC-257 melanoma = system: UACC-257 melanoma
# RPMI-8226 leukemia = system: RPMI-8226 leukemia
# TK-10 renal = system: TK-10 renal
# DU-145 prostate = system: DU-145 prostate
# SNB-19 CNS = system: SNB-19 CNS
# HOP-92 NSCLC = system: HOP-92 NSCLC
# SF-268 CNS = system: SF-268 CNS
# RXF 393 renal = system: RXF 393 renal
# SW-620 colon = system: SW-620 colon
# SF-539 CNS = system: SF-539 CNS
# NCI-H226 lung = system: NCI-H226 lung
# HS 578T breast = system: HS 578T breast
# SK-MEL-28 melanoma = system: SK-MEL-28 melanoma
# A498 renal = system: A498 renal
# SNB-75 CNS = system: SNB-75 CNS
compound,measurement,setting,value
c1ccc([Si](OCCN2CC2)(c2ccccc2)c2ccccc2)cc1,TGI,CCRF-CEM leukemia,49.5 µM
same,TGI,HCC-2998 colon,26.4 µM
same,TGI,NCI/ADR-RES ovarian,28.1 µM
same,TGI,HOP-62 NSCLC,30 µM
same,TGI,OVCAR-3 ovarian,31.3 µM
same,TGI,M14 melanoma,29.3 µM
same,TGI,KM12 colon,35.2 µM
same,TGI,HCT-15 colon,21.9 µM
same,TGI,K-562 leukemia,26.8 µM
same,TGI,ACHN renal,27.9 µM
same,TGI,HT29 colon,27 µM
same,TGI,BT-549 breast,31.5 µM
same,TGI,HCT-116 colon,27.7 µM
same,TGI,MDA-MB-231 breast,28 µM
same,TGI,COLO 205 colon,24.7 µM
same,TGI,SF-295 CNS,27.4 µM
same,TGI,OVCAR-8 ovarian,33.1 µM
same,TGI,CAKI-1 renal,44.8 µM
same,TGI,786-0 renal,27.2 µM
same,TGI,A549 NSCLC,24.1 µM
same,TGI,MDA-N,28.1 µM
same,TGI,U251 CNS,27 µM
same,TGI,LOX IMVI melanoma,27.6 µM
same,TGI,MOLT-4 leukemia,36.3 µM
same,TGI,UO-31 renal,28.4 µM
same,TGI,NCI-H23 lung,29 µM
same,TGI,SK-MEL-5 melanoma,29.2 µM
same,TGI,MALME-3M melanoma,31.3 µM
same,TGI,UACC-62 melanoma,27.2 µM
same,TGI,NCI-H522 lung,25.5 µM
same,TGI,SK-OV-3 ovarian,27.5 µM
same,TGI,MDA-MB-435,26.7 µM
same,TGI,SK-MEL-2 melanoma,18.4 µM
same,TGI,NCI-H460 lung,25 µM
same,TGI,SN12C renal,27.3 µM
same,TGI,MCF7 breast,31.8 µM
same,TGI,EKVX NSCLC,25.4 µM
same,TGI,IGROV1 ovarian,25.5 µM
same,TGI,OVCAR-4 ovarian,22.7 µM
same,TGI,HL-60(TB) leukemia,50.8 µM
same,TGI,T-47D breast,39.9 µM
same,TGI,PC-3 prostate,26.3 µM
same,TGI,OVCAR-5 ovarian,27.7 µM
same,TGI,UACC-257 melanoma,33.2 µM
same,TGI,RPMI-8226 leukemia,36.9 µM
same,TGI,TK-10 renal,29.1 µM
same,TGI,DU-145 prostate,27.5 µM
same,TGI,SNB-19 CNS,16 µM
same,TGI,HOP-92 NSCLC,18.4 µM
same,TGI,SF-268 CNS,23 µM
same,TGI,RXF 393 renal,19.2 µM
same,TGI,SW-620 colon,27.8 µM
same,TGI,SF-539 CNS,26.9 µM
same,TGI,NCI-H226 lung,29.8 µM
same,TGI,HS 578T breast,24.9 µM
C#CCOC(=O)C(N)C(C)O (configuration not stated),TGI,SK-MEL-28 melanoma,> 100 µM
same,TGI,CCRF-CEM leukemia,> 100 µM
same,TGI,NCI/ADR-RES ovarian,> 100 µM
same,TGI,HOP-62 NSCLC,> 100 µM
same,TGI,A498 renal,> 100 µM
same,TGI,OVCAR-3 ovarian,> 100 µM
same,TGI,M14 melanoma,> 100 µM
same,TGI,KM12 colon,> 100 µM
same,TGI,K-562 leukemia,> 100 µM
same,TGI,ACHN renal,> 100 µM
same,TGI,HT29 colon,> 100 µM
same,TGI,BT-549 breast,> 100 µM
same,TGI,HCT-116 colon,> 100 µM
same,TGI,MDA-MB-231 breast,> 100 µM
same,TGI,COLO 205 colon,> 100 µM
same,TGI,SF-295 CNS,> 100 µM
same,TGI,OVCAR-8 ovarian,> 100 µM
same,TGI,CAKI-1 renal,> 100 µM
same,TGI,786-0 renal,> 100 µM
same,TGI,A549 NSCLC,> 100 µM
same,TGI,MDA-N,> 100 µM
same,TGI,U251 CNS,> 100 µM
same,TGI,LOX IMVI melanoma,> 100 µM
same,TGI,MOLT-4 leukemia,> 100 µM
same,TGI,UO-31 renal,> 100 µM
same,TGI,SNB-75 CNS,> 100 µM
same,TGI,NCI-H23 lung,> 100 µM
same,TGI,SK-MEL-5 melanoma,> 100 µM
same,TGI,MALME-3M melanoma,> 100 µM
same,TGI,UACC-62 melanoma,> 100 µM
same,TGI,NCI-H522 lung,> 100 µM
same,TGI,SK-OV-3 ovarian,> 100 µM
same,TGI,MDA-MB-435,> 100 µM
same,TGI,SK-MEL-2 melanoma,> 100 µM
same,TGI,SN12C renal,> 100 µM
same,TGI,MCF7 breast,> 100 µM
same,TGI,EKVX NSCLC,> 100 µM
same,TGI,IGROV1 ovarian,> 100 µM
same,TGI,HL-60(TB) leukemia,> 100 µM
same,TGI,T-47D breast,> 100 µM
same,TGI,PC-3 prostate,> 100 µM
same,TGI,OVCAR-5 ovarian,> 100 µM
same,TGI,UACC-257 melanoma,> 100 µM
same,TGI,RPMI-8226 leukemia,> 100 µM
same,TGI,TK-10 renal,> 100 µM
same,TGI,DU-145 prostate,> 100 µM
same,TGI,HOP-92 NSCLC,> 100 µM
same,TGI,SF-268 CNS,> 100 µM
same,TGI,RXF 393 renal,> 100 µM
same,TGI,SW-620 colon,> 100 µM
same,TGI,NCI-H226 lung,> 100 µM
same,TGI,HS 578T breast,> 100 µM
